Reference: ChEMBL document CHEMBL2086371, “4-quinolones as noncovalent inhibitors of high molecular mass penicillin-binding proteins” (ACS Med Chem Lett, 2012)
Active and inactive are the calls of the source. The calls are words filed in the database; no cut-off is given here.

Experiments:
[1] = tested on: Bacillus subtilis; experiment: Inhibition of bocillin FL binding to Bacillus subtilis PBP1 at 1 mM by gel electrophoresis
[2] = tested on: Escherichia coli; experiment: Inhibition of bocillin FL binding to Escherichia coli MM 294 PBP by whole-cell assay
[3] = tested on: Bacillus subtilis; experiment: Inhibition of bocillin FL binding to Bacillus subtilis PBP3/4 at 1 mM by gel electrophoresis
[4] = Inhibition of bocillin FL binding to PBP 4 in Escherichia coli MM 294 membrane preparation by gel electrophoresis; assay type: cell membranes
[5] = tested on: Escherichia coli; experiment: Antibacterial activity against Escherichia coli MM 294 after 20 hrs by tube dilution method; assay type: functional; conditions: MM 294, 20 h
[6] = tested on: Bacillus subtilis; experiment: Inhibition of bocillin FL binding to Bacillus subtilis PBP2 at 1 mM by gel electrophoresis
[7] = Inhibition of bocillin FL binding to PBP 2 in Escherichia coli MM 294 membrane preparation by gel electrophoresis; assay type: cell membranes
[8] = tested on: Escherichia coli; experiment: Inhibition of bocillin FL binding to PBP 5/6 in Escherichia coli MM 294 membrane preparation at 1 mM by gel electrophoresis; assay type: cell membranes
[9] = Inhibition of bocillin FL binding to PBP 1a/1b in Escherichia coli MM 294 membrane preparation by gel electrophoresis; assay type: cell membranes
[10] = tested on: Bacillus subtilis; experiment: Antibacterial activity against Bacillus subtilis after 20 hrs by tube dilution method; assay type: functional, organism-based
[11] = tested on: Escherichia coli; experiment: Inhibition of bocillin FL binding to PBP 3 in Escherichia coli MM 294 membrane preparation at 1 mM by gel electrophoresis; assay type: cell membranes
[12] = tested on: Bacillus subtilis; experiment: Inhibition of bocillin FL binding to Bacillus subtilis PBP5 at 1 mM by gel electrophoresis
[13] = Inhibition of bocillin FL binding to PBP 3 in Escherichia coli MM 294 membrane preparation by gel electrophoresis; assay type: cell membranes
[14] = Inhibition of bocillin FL binding to Escherichia coli MM 294 PBP2 by cell-free assay
[15] = Inhibition of bocillin FL binding to PBP 5/6 in Escherichia coli MM 294 membrane preparation by gel electrophoresis; assay type: cell membranes
[16] = tested on: Escherichia coli; experiment: Inhibition of bocillin FL binding to Escherichia coli MM 294 PBP 5/6 by cell-free assay
[17] = tested on: Escherichia coli; experiment: Inhibition of bocillin FL binding to PBP 1a/1b in Escherichia coli MM 294 membrane preparation at 1 mM by gel electrophoresis; assay type: cell membranes
[18] = tested on: Escherichia coli; experiment: Inhibition of bocillin FL binding to PBP 4 in Escherichia coli MM 294 membrane preparation at 1 mM by gel electrophoresis; assay type: cell membranes
[19] = tested on: Escherichia coli; experiment: Inhibition of bocillin FL binding to PBP 2 in Escherichia coli MM 294 membrane preparation at 1 mM by gel electrophoresis; assay type: cell membranes

Row | inhibition [1] | inhibition [2] | inhibition [3] | MIC [5] [µM] | inhibition [6] | inhibition [8] | inhibition [11] | inhibition [12] | inhibition [16] | Compound | Ki [4] [µM] | Ki [7] [µM] | Ki [9] [µM] | Activity [10] | Ki [13] [µM] | Ki [14] [µM] | Ki [15] [µM] | inhibition [17] | inhibition [18] | inhibition [19]
1 | Active | inactive | Active | > 1000 | Active | inactive | inactive | Active | – | O=c1cc[nH]c2cc(O)ccc12 | 55 | 89 | 510 | inactive | – | – | – | – | – | –
2 | Active | inactive | Active | > 1000 | Active | – | – | Active | inactive | O=c1cc(CO)[nH]c2ccccc12 | 4.8 | 26 | 27 | inactive | 27 | 64 | 220 | – | – | –
3 | Active | inactive | Active | > 1000 | Active | – | – | Active | – | O=c1cc(CCO)[nH]c2ccccc12 | 7 | 26 | 37 | inactive | 120 | – | 520 | – | – | –
4 | Active | inactive | Active | > 1000 | Active | inactive | inactive | Active | – | O=C(O)Cc1c[nH]c2ccccc2c1=O | 29 | 250 | 300 | inactive | – | – | – | – | – | –
5 | Active | inactive | Active | > 1000 | Active | inactive | – | Active | – | O=c1c(CCO)c[nH]c2ccccc12 | 3.1 | 27 | 38 | inactive | 70 | – | – | – | – | –
6 | Active | inactive | Active | > 1000 | Active | inactive | inactive | Active | – | Oc1cccc2nccc(O)c12 | – | – | – | inactive | – | – | – | inactive | inactive | inactive
7 | Active | inactive | Active | > 1000 | Active | inactive | – | Active | – | O=c1cc(CCCO)[nH]c2ccccc12 | 6.1 | 50 | 49 | inactive | 120 | – | – | – | – | –
8 | Active | inactive | Active | > 1000 | Active | inactive | – | Active | – | O=C(O)c1cc(=O)c2ccccc2[nH]1 [TRANSTORINE] | 37 | 210 | 470 | inactive | 950 | – | – | – | – | –

Row | Compound | inhibition [1] | inhibition [2] | inhibition [3] | MIC [5] [µM] | inhibition [6] | inhibition [8] | inhibition [11] | inhibition [12] | inhibition [16] | Ki [4] [µM] | Ki [7] [µM] | Ki [9] [µM] | Activity [10] | Ki [13] [µM] | Ki [14] [µM] | Ki [15] [µM] | inhibition [17] | inhibition [18] | inhibition [19]
9 | Oc1ccnc2ccccc12 | – | – | – | – | – | inactive | inactive | – | – | – | – | – | – | – | – | – | inactive | inactive | inactive
